Experimental data taken from patent publication US20030133874A1, “Analytical method to evaluate animal models of neurofibrillary degeneration” (priority 2002, published 2003).

How the values were obtained:
[1] = tested on: tau; test: Tau hyperphosphorylation in vivo after intracerebral injection into nucleus basalis, immunoblot; conditions: rat nucleus basalis
Procedure: a) Analysis with mAbs Tau-1 and AT8. […] Brains were surgically removed, the nucleus basalis dissected and homogenized in ice-cold stop buffer after 30 to 360 min. Heatstable supernatants were immunoblotted with Tau-1, AT8, and Tau-1 after dephosphorylation on the blot for normalization purposes.
b) Relevant areas of immunoblots developed with ECL were scanned densitometrically and AT8 signals normalized to Tau-1 signals of phosphatase-treated blots. Results represent triplicate experiments, P values were determined by ANOVA.
c) Aliquots of extracts of vehicle and okadaic acid injected nuclei basali were immunoblotted with mAb AP422.
Male or female Long-Evans rats at approximately 3 to 4 months of age were housed in pairs with food and water available ad libidum. […] The tissue was held out of the operating field with forceps and the areas of injection were marked. Openings were made through the skull using a dentists drill and a number 5 carbide bur. […]
Heat-stable supernatants of triplicate experiments were analyzed by immunoblotting with AT8 (FIG. 5a) and AP422 (FIG. 5c). AT8 signals were quantitated after normalization to Tau-1 immunoreactivity on phosphatase-treated blots as described in example 3. […]

[2] = tested on: tau; test: Induction of tau hyperphosphorylation in rat hippocampal brain slices, immunoblot; assay type: cell-based
Procedure: Freshly prepared hippocampal brain slices from adult Long-Evans rats were incubated under oxygenation in a physiological buffer for 1 hr with increasing concentrations of okadaic acid. Slices were homogenized in an ice-cold stop buffer by brief ultrasonication, and supernatants were boiled and analyzed for heatstable tau proteins by immunoblotting with reference mAbs Tau-1, AT8, and PHF-1 (FIG. 4a), and AP422 (FIG. 4b).
Adult male Long-Evans rats were anesthesized with CO2 and decapitated. Brains were removed within 2 min and the hippocampus was dissected using a blunt spatula. Hippocampi were cut into […] slices using a Mcllwain tissue chopper and placed into ice-cold low Ca^2+ Krebs-Bicarbonate buffer (pH 7.0): 124 mM NaCl, 3.33 mM KCl, 0.01 mM Ca^2+, 1.25 mM KH2P04, 1.33 mM MgS04, 25.7 mM NaHCO3, 10 mM D-Glucose, 20 mM HEPES. 5-8 slices were placed into a tube with 5 ml of low Ca^2+ buffer and incubated for at least 30 min at 33-34° C. with water saturated oxygenation (95% O2, 5% CO2.). After 30 min the solution was replaced with a buffer containing a physiological level of Ca^2+ (1.3 mM) and incubated for an additional 30 min. […] Aliquots of heat-stable supernatants, normalized for protein content, were analyzed on 10% SDS-PAGE, followed by immunoblotting with mAbs AT8 (1:200) and AP422 (1:5,000). […]

[3] = tested on: tau; test: Tau phosphorylation in rat brain after prolonged pentobarbital anesthesia, immunoblot of heat-stable extracts; conditions: rats, five hours after 65 mg/kg
Excerpt: The animals at 5 hrs after the first anesthesia had to be anethesized a second time, as they had regained full consciousness. […] Recovered brains were homogenized and supernatants processed for immunoblotting with AT8 and Tau-1 as before. To normalize signal intensity with phosphorylation-dependent mAbs to total amount of tau protein present in each extract (specific labelling) sister blots with a five-fold reduced load of extract protein were subjected to exhaustive dephosphorylation with calf intestinal alkaline phosphatase prior to staining with Tau-1. Blots were developed by ECL and relevant areas of the blots were scanned densitometrically. […]
A second dose of anesthetic was administered immediately prior to brain removal when excision occurred two hours or more after the first anesthesia. Cortices were processed and tau proteins analyzed by Western-blotting as in Example 2, using mAbs Tau-1 and AT8. To allow quantitative immunochemical evaluation of tau phosphorylation sister blots of all samples with a five-fold lower protein load were subjected to exhaustive dephosphorylation to provide a relative measure for total load of tau protein using Tau-1 staining. […] Signals were captured on KODAK X-OMAT scientific imaging film and quantitated by densitometric scanning and image analysis with NIH image 1.44. […]

SMILES | specific effect on normalized AT8 signal ([1]; 30 to 360 min after injection) | in vivo tau hyperphosphorylation detected with AP422 ([1]; individual animals) | tau hyperphosphorylation detected with AT8 ([2]; freshly prepared rat brain slices) | AP422 reactivity of tau ([2]; rat hippocampal brain slices, increasing concentrations) | autonomous signs after regaining consciousness [3]
C=C1[C@@H](O)[C@@H]2O[C@]3(CC[C@H](/C=C/[C@@H](C)[C@@H]4CC(C)=C[C@@]5(O[C@H](C[C@@](C)(O)C(=O)O)CC[C@H]5O)O4)O3)CC[C@H]2O[C@@H]1[C@@H](O)C[C@H](C)[C@H]1O[C@@]2(CCCCO2)CC[C@H]1C [okadaic acid] | impossible to discern | does not always occur | tau hyperphosphorylation induced | induced | –
CCCC(C)C1(CC)C(=O)NC(=O)NC1=O (centres unmarked) [pentobarbital] | – | – | – | – | no abnormal autonomous signs
